Assay results as given in patent US6451857B1, “Analgesic compositions comprising anti-epileptic compounds and methods of using same” (Warner-Lambert Company, priority 1999, dated 2002).

Test system: carrageenan-induced thermal hyperalgesia
Assay: Carrageenan rat footpad thermal hyperalgesia test (Hargreaves test)
Assay type: in vivo
Source text: The aim of this experiment was to characterize the antinociceptive and anti-inflammatory effects of gabapentin administered in combination with a prototypic NSAID in the rat. […] This assay utilizes an extract of seaweed (carrageenan) that, when injected into the footpad of test animals, causes a sterile inflammation, thereby lowering the pain threshold.
Male Sprague-Dawley rats (200-250 g, Sasco Laboratories) were used. Rats were group housed 5/cage on a 12-hour light:dark cycle with free access to food and water. Rats received only one dose of a drug or drug combination. All drugs were administered orally by gavage.
Dose-effect curves were first determined for (1) gabapentin by itself and (2) a prototypic NSAID (e.g., naproxen) by itself. The ED50 value and 95% confidence limits of each agent was determined, as was the time to peak effect. […]
Carrageenan-induced thermal hyperalpesia: Rats were acclimated to a testing chamber whose glass floor was maintained at 25° C. Thirty minutes later, a high intensity beam of light was focused through the glass on the ventral surface of each hindpaw, and the latency to reflex withdrawal of the paw from the light beam was measured to the nearest 0.1 second. […] Response latencies for the ipsilateral and contralateral hindpaws were then re-determined 15, 30, 45, 60, 90 and 120 minutes later. […]
Data were expressed as the mean ±SEM. […]

`COc1ccc2cc([C@H](C)C(=O)O)ccc2c1` [Naproxen sodium, naproxen sodium] was tested, and the anti-hyperalgesic action (PO, gabapentin 3-100 mg/kg, naproxen sodium 0.3-30 mg/kg, combinations in fixed ratio) was “caused anti-hyperalgesic actions” and the ED50 (Rattus norvegicus, 2 h, single drug, oral gavage, male Sprague-Dawley rats, data 120 min after dosing, 95% confidence limits in parentheses) was 0.36 mg/kg.
